Test results published in US6338955B2, “β1-4 N-acetylglucosaminyltransferase and gene encoding” (Kirin Beer Kabushiki Kaisha, priority 1996, dated 2002).
Entries after “also recorded” stand apart in the source; their conditions may differ. Like-named read-outs stand apart in the source and are kept apart here. Blank lines part the entries; values can stand above or below the compound they belong to.

Assays:
[1] = molecular target: T1, GnT-IV (Bos taurus, UniProt O77836); assay: Specific assay for GnT-IV activity (pyridylaminated oligosaccharide acceptor, HPLC) with purified enzyme; type: biochemical, bovine; conditions: for Activity (%), Inhibition of GnT-IV by Nucleotides: nucleotide 2 mM in the presence of 0.5 mM UDP-GlcNAc, nothing added = 100%
T1 construct: it is thought that GnT-IV from bovine small intestine is a glycoprotein having at least Asn-linked sugar chains; from tissue; host or cells: bovine small intestine (microsome fraction, Triton X-100 solubilized, purified to Sample 7)
T1 sequence (O77836 93-535 limits assumed): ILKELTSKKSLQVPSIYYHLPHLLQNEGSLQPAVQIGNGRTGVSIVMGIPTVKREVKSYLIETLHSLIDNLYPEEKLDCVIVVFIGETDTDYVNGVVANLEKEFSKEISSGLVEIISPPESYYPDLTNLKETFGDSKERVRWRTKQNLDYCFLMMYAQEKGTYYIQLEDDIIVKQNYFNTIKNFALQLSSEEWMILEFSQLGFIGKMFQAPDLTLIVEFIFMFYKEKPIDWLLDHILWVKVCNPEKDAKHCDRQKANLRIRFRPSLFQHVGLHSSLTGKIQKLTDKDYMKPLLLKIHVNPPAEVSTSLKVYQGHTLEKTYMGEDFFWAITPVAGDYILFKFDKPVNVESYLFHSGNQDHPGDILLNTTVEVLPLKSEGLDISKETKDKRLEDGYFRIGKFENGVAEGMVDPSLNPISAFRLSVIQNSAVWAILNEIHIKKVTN
Procedure: Then, the reaction was terminated by boiling the solution for 2 minutes. […] The fluorescence of pyridylamino groups was detected using excitation at 320 nm and emission at 400 nm.

[2] = molecular target: T2, GnT-IV (Bos taurus, UniProt O77836); assay: Action of GnT-IV on glycoproteins (UDP-[14C]GlcNAc, SDS-PAGE and fluorography); type: biochemical, bovine; conditions: 37° C., 20 hours; FIG. 17 Panel B lanes 2 and 5
T2 construct: it is thought that GnT-IV from bovine small intestine is a glycoprotein having at least Asn-linked sugar chains; from tissue; host or cells: bovine small intestine (microsome fraction, Triton X-100 solubilized, purified to Sample 7)
T2 sequence (O77836 1-535): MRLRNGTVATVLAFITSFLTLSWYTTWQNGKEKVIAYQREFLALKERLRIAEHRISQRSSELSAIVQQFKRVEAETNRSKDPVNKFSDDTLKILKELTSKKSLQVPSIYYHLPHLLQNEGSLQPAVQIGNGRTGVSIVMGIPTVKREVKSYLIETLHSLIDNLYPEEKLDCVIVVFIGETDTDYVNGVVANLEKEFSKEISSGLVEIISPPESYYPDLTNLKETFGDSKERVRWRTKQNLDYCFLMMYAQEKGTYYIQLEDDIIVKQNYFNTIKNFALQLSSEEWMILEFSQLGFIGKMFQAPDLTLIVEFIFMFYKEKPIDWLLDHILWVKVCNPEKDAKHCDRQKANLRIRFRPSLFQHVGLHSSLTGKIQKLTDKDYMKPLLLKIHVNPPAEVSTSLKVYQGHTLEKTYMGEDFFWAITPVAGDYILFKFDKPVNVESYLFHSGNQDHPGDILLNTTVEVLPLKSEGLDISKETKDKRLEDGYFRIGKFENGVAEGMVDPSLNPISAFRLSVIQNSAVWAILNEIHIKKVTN
Procedure: GnT-IV reaction conditions: To 10 μl of a solution containing […] of GnT-IV, a substrate glycoprotein equivalent to 1.6 nmol of biantennary type sugar chains (for fetuin alone, the sugar chain content was 1.6 nmol) and 450 nCi of UDP-[^14C] […] One tenth of the resultant solution was analyzed by SDS-PAGE and fluorography.
For SDS-PAGE, 10-20% gradient gel (Daiichi Kagaku) was used. For fluorography, Amplify (Amersham) was used to expose the samples to X ray film for 20 hours.
GlcNAc as a sugar donor. Then, the reaction products were analyzed by SDS-PAGE and fluorography (Panels A and B, FIG. 17). As shown in lanes 2 and 5 of Panel B in FIG. 17, transfer of [^14 C] GlcNAc to asialo agalacto human transferrin and asialo agalacto, CHO cell-derived recombinant human erythropoietin.

[3] = additive 10 mM added to GnT-IV sample freed of metal ions, activity with 10 mM MnCl2 = 100%

Activity (%), Inhibition of GnT-IV by Nucleotides [1]: 92.3%
Compound: O=C(O)[C@H]1O[C@H](OP(=O)(O)OP(=O)(O)OC[C@H]2O[C@@H](n3ccc(=O)[nH]c3=O)[C@H](O)[C@@H]2O)[C@H](O)[C@@H](O)[C@@H]1O [UDP-glucuronic acid]

Stabilization of the enzyme [1]: Stabilizing effect is recognized
Compound: OCC(O)CO [glycerol]

Activity (%), Inhibition of GnT-IV by Nucleotides [1]: 115%
Compound: O=c1ccn([C@@H]2O[C@H](CO)[C@@H](O)[C@H]2O)c(=O)[nH]1 [Uridine]
Inhibition of GnT-IV by nucleotides / UDP derivatives [1]: little inhibitory effect; also recorded: do not have inhibitory effect

Compound: [Cl-].[Cl-].[Co+2] [CoCl2]
Activity (%), Divalent Cation Requirement of GnT-IV [1]: 74.8% | Effect of divalent cation relative to that of Mn2+ [1]: about 70%

Transfer of [14C]GlcNAc to glycoprotein by GnT-IV [2]: transfer of [^14 C] GlcNAc
Compound: asialo agalacto, CHO cell-derived recombinant human erythropoietin: recombinant human erythropoietin with high biantennary sugar chain content treated with sialidase and β-galactosidase

Activity (%), Inhibition of GnT-IV by Nucleotides [1]: 88.2%
Compound: O=c1ccn([C@@H]2O[C@H](COP(=O)(O)OP(=O)(O)OP(=O)(O)O)[C@@H](O)[C@H]2O)c(=O)[nH]1 [UTP]

Activity (%), Inhibition of GnT-IV by Nucleotides [1]: 67.4%
Compound: O=c1ccn([C@H]2C[C@H](O)[C@@H](COP(=O)(O)OP(=O)(O)O)O2)c(=O)[nH]1 [2′-deoxy-UDP]

Km ([1]; GnT-II product type oligosaccharide as receptor substrate, conditions (i)/Reference Example 2, read-out: Km toward UDP-GlcNAc): 220 µM
Compound: CC(=O)N[C@H]1[C@@H](OP(=O)(O)OP(=O)(O)OC[C@H]2O[C@@H](n3ccc(=O)[nH]c3=O)[C@H](O)[C@@H]2O)O[C@H](CO)[C@@H](O)[C@@H]1O [UDP-GlcNAc]

Requirement of divalent cation: effect of additive on activity [1]: greatest effect | Activity (%), Divalent Cation Requirement of GnT-IV [1, 3]: 100%
Compound: [Cl][Mn][Cl] [MnCl2]

Activity (%), Inhibition of GnT-IV by Nucleotides [1]: 59.7%
Compound: CC(=O)N[C@H]1[C@@H](OP(=O)(O)OP(=O)(O)OC[C@H]2O[C@@H](n3ccc(=O)[nH]c3=O)[C@H](O)[C@@H]2O)O[C@H](CO)[C@H](O)[C@@H]1O [UDP-N-acetylgalactosamine]

Activity (%), Inhibition of GnT-IV by Nucleotides [1]: 27.3%
Compound: O=c1ccn([C@@H]2O[C@H](COP(=O)(O)OP(=O)(O)O)[C@@H](O)[C@H]2O)c(=O)[nH]1 [UDP]
Inhibition of GnT-IV by nucleotides / UDP derivatives [1]: inhibited the activity of this enzyme most strongly

Activity (%), Inhibition of GnT-IV by Nucleotides [1]: 73.6%
Compound: NCCCCCCOP(=O)(O)OP(=O)(O)OCC1OC(n2ccc(=O)[nH]c2=O)C(O)C1O (centres unmarked) [UDP-hexanolamine]

Activity (%), Divalent Cation Requirement of GnT-IV [1, 3]: 72.5%
Compound: [Cl-].[Cl-].[Mg+2] [MgCl2]

Activity (%), Inhibition of GnT-IV by Nucleotides [1]: 112%
Compound: Nc1ccn([C@@H]2O[C@H](COP(=O)(O)OP(=O)(O)O)[C@@H](O)[C@H]2O)c(=O)n1 [CDP]
Inhibition of GnT-IV by nucleotides / UDP derivatives [1]: little inhibitory effect; also recorded: do not have inhibitory effect

Requirement of divalent cation: effect of additive on activity [1]: Weak effect | Activity (%), Divalent Cation Requirement of GnT-IV [1, 3]: 9.8%
Compound: [Cl][Fe][Cl] [FeCl2]

Activity (%), Divalent Cation Requirement of GnT-IV [1, 3]: 0%
Compound: [Cl][Cu][Cl] [CuCl2]

Inhibition of GnT-IV by nucleotides / UDP derivatives [1]: little inhibitory effect | Activity (%), Inhibition of GnT-IV by Nucleotides [1]: 97.3%
Compound: O=c1ccn([C@@H]2O[C@H](COP(=O)(O)O)[C@@H](O)[C@H]2O)c(=O)[nH]1 [UMP]

Transfer of [14C]GlcNAc to glycoprotein by GnT-IV [2]: transfer of [^14 C] GlcNAc
Compound: asialo agalacto human transferrin: human transferrin treated with sialidase and β-galactosidase; glycoprotein substrate

Activity (%), Inhibition of GnT-IV by Nucleotides [1]: 110%
Compound: Cc1cn([C@H]2C[C@H](O)[C@@H](COP(=O)(O)OP(=O)(O)O)O2)c(=O)[nH]c1=O [TDP]
Inhibition of GnT-IV by nucleotides / UDP derivatives [1]: little inhibitory effect; also recorded: do not have inhibitory effect

Requirement of divalent cation: effect of additive on activity [1]: Weak effect | Activity (%), Divalent Cation Requirement of GnT-IV [1, 3]: 7.2%
Compound: [Ca+2].[Cl-].[Cl-] [CaCl2]
